Test [1] can be described thus: Antimicrobial Activity Assay: whole-cell broth microdilution (CLSI M7-A7). The conditions noted are these: at least one of S. aureus, S. pneumoniae, E. faecalis, H. influenzae, M. catarrhalis, E. coli, read-out: MIC against at least one of the organisms listed. It counts as cell-based, Gram-positive and Gram-negative organisms. On the procedure: Antimicrobial Activity Assay: Whole-cell antimicrobial activity was determined by broth microdilution using the Clinical Laboratory Standards Institute (CLSI) recommended procedure, Document M7-A7, “Methods for Dilution Susceptibility Tests for Bacteria that Grow Aerobically”. Compounds were evaluated against Gram-positive organisms, including Staphylococcus aureus, Streptococcus pneumoniae, and Enterococcus faecalis. In addition, compounds were evaluated against Gram-negative organisms including Haemophilus influenzae, Moraxella catarrhalis, and Escherichia coli. The minimum inhibitory concentration (MIC) was determined as the lowest concentration of compound that inhibited visible growth. A mirror reader was used to assist in determining the MIC endpoint.
In general terms: In broth dilution the organism is exposed to a series of concentrations in liquid medium.

Test [2] has as its system Mycobacterium tuberculosis H37Rv. Briefly: Mycobacterium tuberculosis H37Rv Inhibition Assay (resazurin MIC). It counts as cell-based. The settings on record: ATCC 25618 / H37Rv, H37Rv strain (ATCC25618), Middlebrook 7H9+ADC, six days at 37° C., resazurin fluorescence after 48 hours, read-out: MtB MIC. On the technique in general: The colour change of resazurin is a common sign of viable cells or microbes.

Values after ≈ are worked out from the molar mass of the structure shown.

On to `O=c1ccc2ccc(=O)n3c2n1C[C@H]3CN1CCC(NC/C=C/c2cncc(F)c2)CC1` [Example 4, (1R)-1-[(4-{[(2E)-3-(5-fluoro-3-pyridinyl)-2-propen-1-yl]amino}-1-piperidinyl)methyl]-1,2-dihydro-4H,9H-imidazo[1,2,3-ij]-1,8-naphthyridine-4,9-dione], for which the MIC was less than 2 µg/mL in test [1] and 0.544 µg/mL (≈ 1.25 µM) in test [2].

Take `O=c1ccc2ncc(=O)n3c2n1CC3CN1CCC(NC/C=C/c2cccc(F)c2)CC1` (stereo not drawn) [Example 2, 2-[(4-{[(2E)-3-(3-fluorophenyl)-2-propen-1-yl]amino}-1-piperidinyl)methyl]-1,2-dihydro-3H,8H-2a,5,8a-triazaacenaphthylene-3,8-dione]: the MIC in test [1] is less than 2 µg/mL; in test [2], 0.102 µg/mL (≈ 0.234 µM).

For the compound `O=c1ccc2ncc(=O)n3c2n1CC3CN1CCC(NCCOc2cccc(F)c2)CC1` (stereo not drawn) [Example 6, 2-{[4-({2-[(3-fluorophenyl)oxy]ethyl}amino)-1-piperidinyl]methyl}-1,2-dihydro-3H,8H-2a,5,8a-triazaacenaphthylene-3,8-dione], the MIC was less than 2 µg/mL in test [1] and 0.824 µg/mL (≈ 1.87 µM) in test [2].

As for `O=c1ccc2ncc(=O)n3c2n1CC3CN1CCC(NC/C=C/c2cncc(F)c2)CC1` (stereo not drawn) [Example 5, 2-[(4-{[(2E)-3-(5-fluoro-3-pyridinyl)-2-propen-1-yl]amino}-1-piperidinyl)methyl]-1,2-dihydro-3H,8H-2a,5,8a-triazaacenaphthylene-3,8-dione], the MIC in test [2] stood at 0.273 µg/mL (≈ 0.625 µM).

Regarding `O=c1ccc2ccc(=O)n3c2n1C[C@H]3CN1CCC(NC/C=C/c2cc(F)ccc2F)CC1` [Example 1, (1R)-1-[(4-{[(2E)-3-(2,5-difluorophenyl)-2-propen-1-yl]amino}-1-piperidinyl)methyl]-1,2-dihydro-4H,9H-imidazo[1,2,3-ij]-1,8-naphthyridine-4,9-dione], the MIC was less than 2 µg/mL in test [1] and 0.071 µg/mL (≈ 0.157 µM) in test [2].

On to `O=c1ccc2ncc(=O)n3c2n1CC3CN1CCC(NCCNc2cccc(F)c2)CC1` (stereo not drawn) [Example 7, 2-{[4-({2-[(3-Fluorophenyl)amino]ethyl}amino)-1-piperidinyl]methyl}-1,2-dihydro-3H,8H-2a,5,8a-triazaacenaphthylene-3,8-dione], for which the MIC in test [2] came to 0.071 µg/mL (≈ 0.162 µM).

In the case of `O=c1ccc2ncc(=O)n3c2n1CC3CN1CCC(NCCCc2cccc(F)c2)CC1` (stereo not drawn) [Example 3, 2-[(4-{[3-(3-fluorophenyl)propyl]amino}-1-piperidinyl)methyl]-1,2-dihydro-3H,8H-2a,5,8a-triazaacenaphthylene-3,8-dione], the MIC in test [1] was less than 2 µg/mL; in test [2] it was 0.82 µg/mL (≈ 1.87 µM).

The values are drawn from patent US20110071155A1, “Tricyclic Nitrogen Containing Compounds And Their Use As Antibacterials” (priority 2008, published 2011).
